Experimental data: ChEMBL document CHEMBL1123676, “Synthetic and enzyme inhibition studies of pepstatin analogues containing hydroxyethylene and ketomethylene dipeptide isosteres” (J Med Chem, 1987)
Non-standard residues stand in square brackets, D forms with d. Residues, ends and D or L forms follow the SMILES beside them. ξ: configuration not given here. *: point of attachment. Cbz = O=C(OCc1ccccc1)*; ξL = CC(C)CC(N)C(=O)O; ξA = CC(N)C(=O)O

Assays:
Pepsin A (Sus scrofa) [1] = target: Pepsin A (Sus scrofa) (UniProt P00791)
Sequence of Pepsin A (Sus scrofa) (P00791 60-385 limits assumed): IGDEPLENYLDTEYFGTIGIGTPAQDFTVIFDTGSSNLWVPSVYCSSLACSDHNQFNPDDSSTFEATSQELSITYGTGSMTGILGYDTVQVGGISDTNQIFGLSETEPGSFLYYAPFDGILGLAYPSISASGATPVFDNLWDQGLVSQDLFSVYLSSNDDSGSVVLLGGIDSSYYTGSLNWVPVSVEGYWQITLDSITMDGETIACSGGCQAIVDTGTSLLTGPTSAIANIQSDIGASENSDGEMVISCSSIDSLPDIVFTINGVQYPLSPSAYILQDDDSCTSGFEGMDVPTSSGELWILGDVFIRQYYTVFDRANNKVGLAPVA

Pepsin A [2] = target: T1, Pepsin A (Sus scrofa, UniProt P00791); assay: Inhibition of porcine pepsin
T1 sequence (P00791 whole entry): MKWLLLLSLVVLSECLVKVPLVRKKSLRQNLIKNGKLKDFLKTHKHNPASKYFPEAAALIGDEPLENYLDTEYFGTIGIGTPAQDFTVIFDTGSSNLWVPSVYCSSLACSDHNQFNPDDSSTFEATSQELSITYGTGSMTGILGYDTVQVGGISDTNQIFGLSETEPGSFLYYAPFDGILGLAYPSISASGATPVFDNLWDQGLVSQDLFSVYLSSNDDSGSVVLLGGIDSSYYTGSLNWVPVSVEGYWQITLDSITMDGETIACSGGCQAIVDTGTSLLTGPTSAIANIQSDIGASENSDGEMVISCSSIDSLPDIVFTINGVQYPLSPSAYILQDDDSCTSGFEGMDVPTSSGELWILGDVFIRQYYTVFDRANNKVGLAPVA

Pepsin A (Sus scrofa) [3] = target: Pepsin A (Sus scrofa) (UniProt P00791); assay: Slow binding inhibition characteristic of the pepstatin-pepsin interaction; - indicates that the binding is not slow.
[4] = Ratio of kinetic constant kcat / KM of porcine pepsin
Pepsin A (Sus scrofa) [5] = target: Pepsin A (Sus scrofa) (UniProt P00791); assay: The kinetic constant (Kcat)of porcine pepsin substrate Z-His-Phe-Gly-oMe was determined
Pepsin A [6] = target: T1, Pepsin A; assay: Inhibitory activity against porcine pepsin substrate Z-His-Phe-DPhe-oMe was determined
Pepsin A [7] = target: T1, Pepsin A; assay: Inhibitory activity against porcine pepsin was determined
Pepsin A (Sus scrofa) [8] = target: Pepsin A (Sus scrofa) (UniProt P00791); assay: The kinetic constant (Kcat)of porcine pepsin substrate Z-His-Phe-Phe-oMe was determined
Pepsin A (Sus scrofa) [9] = target: Pepsin A (Sus scrofa) (UniProt P00791); assay: The kinetic constant (Kcat)of porcine pepsin substrate Z-His-Phe-Ala-oMe was determined
Pepsin A (Sus scrofa) [10] = target: Pepsin A (Sus scrofa) (UniProt P00791); remark: listed apart in the source
Pepsin A (Sus scrofa) [11] = target: Pepsin A (Sus scrofa) (UniProt P00791); assay: The kinetic constant (Kcat)of porcine pepsin substrate Z-His-Phe-Leu-oMe was determined
Pepsin A (Sus scrofa) [12] = target: Pepsin A (Sus scrofa) (UniProt P00791); assay: Slow binding inhibition characteristic of the pepstatin-pepsin interaction; indicates that the binding is not slow.

Ki (Pepsin A [2]) [nM]	Slow binding (Pepsin A (Sus scrofa) [3])	Structure (SMILES)	also measured
27	–	CC(C)CCNC(=O)C(C)C[C@H](O)[C@H](CC(C)C)NC(=O)C(NC(=O)CC(C)C)C(C)C (stereo not given in full)	Slow binding (Pepsin A (Sus scrofa) [1]): binding is not slow
72	binding is not slow	CC(C)CCNC(=O)C(C)NC(=O)C(CC(=O)[C@H](CC(C)C)NC(=O)C(NC(=O)CC(C)C)C(C)C)Cc1ccccc1 (stereo not given in full)	–
–	–	COC(=O)CNC(=O)[C@H](Cc1ccccc1)NC(=O)[C@H](Cc1c[nH]cn1)NC(=O)OCc1ccccc1 (Cbz-His-Phe-Gly-OMe)	Ratio [4]: 1.3; k cat (Pepsin A (Sus scrofa) [5]): 2.1 ms-1
2140	binding is not slow	CC(C)CCNC(=O)C(C)NC(=O)CCC(=O)[C@H](CC(C)C)NC(=O)C(NC(=O)CC(C)C)C(C)C (stereo not given in full)	–
–	–	COC(=O)[C@@H](Cc1ccccc1)NC(=O)[C@H](Cc1ccccc1)NC(=O)[C@H](Cc1c[nH]cn1)NC(=O)OCc1ccccc1	Ki (Pepsin A [6]): 280000 nM
2.5	–	CC(C)CCNC(=O)C(C)NC(=O)C(Cc1ccccc1)C[C@H](O)[C@H](CC(C)C)NC(=O)C(NC(=O)CC(C)C)C(C)C (stereo not given in full)	–
–	–	CC(C)CCNC(=O)C(C)NC(=O)C[C@H](O)C(CC(C)C)NC(=O)C(NC(=O)CC(C)C)C(C)C (stereo not given in full)	Ki (Pepsin A [7]): 3 nM
–	–	COC(=O)C(Cc1ccccc1)NC(=O)[C@H](Cc1ccccc1)NC(=O)[C@H](Cc1c[nH]cn1)NC(=O)OCc1ccccc1 (stereo not given in full)	Ratio [4]: 520; k cat (Pepsin A (Sus scrofa) [8]): 170 ms-1
–	–	COC(=O)C(C)NC(=O)[C@H](Cc1ccccc1)NC(=O)[C@H](Cc1c[nH]cn1)NC(=O)OCc1ccccc1 (stereo partly drawn) (Cbz-His-Phe-[ξA]-OMe)	k cat (Pepsin A (Sus scrofa) [9]): 3.7 ms-1; Ratio [4]: 2.1
56	binding is not slow	CC(C)CCNC(=O)C(C)NC(=O)CC(=O)C(CC(C)C)NC(=O)C(NC(=O)CC(C)C)C(C)C (stereo not given)	–
50	–	CC(C)CCNC(=O)C(C)NC(=O)CC[C@H](O)[C@H](CC(C)C)NC(=O)C(NC(=O)CC(C)C)C(C)C (stereo not given in full)	Slow binding (Pepsin A (Sus scrofa) [10]): binding is not slow
3	–	CC(C)CCNC(=O)C(C)NC(=O)C(C)C[C@H](O)[C@H](CC(C)C)NC(=O)C(NC(=O)CC(C)C)C(C)C (stereo not given in full)	–
27	binding is not slow	CC(C)CCNC(=O)C(C)NC(=O)C(C)CC(=O)[C@H](CC(C)C)NC(=O)C(NC(=O)CC(C)C)C(C)C (stereo not given in full)	–
–	–	COC(=O)C(CC(C)C)NC(=O)[C@H](Cc1ccccc1)NC(=O)[C@H](Cc1c[nH]cn1)NC(=O)OCc1ccccc1 (stereo partly drawn) (Cbz-His-Phe-[ξL]-OMe)	k cat (Pepsin A (Sus scrofa) [11]): 5.2 ms-1; Ratio [4]: 10
850	binding is not slow	CC(C)CCNC(=O)C(C)NC(=O)[C@@H](CC(=O)[C@H](CC(C)C)NC(=O)C(NC(=O)CC(C)C)C(C)C)Cc1ccccc1 (stereo not given in full)	–
56	binding is not slow	CC(C)CCNC(=O)CNC(=O)C[C@H](O)C(CC(C)C)NC(=O)C(NC(=O)CC(C)C)C(C)C (stereo not given in full)	–
140	–	CC(C)CCNC(=O)C(C)NC(=O)[C@H](Cc1ccccc1)C[C@H](O)[C@H](CC(C)C)NC(=O)C(NC(=O)CC(C)C)C(C)C (stereo not given in full)	Slow binding (Pepsin A (Sus scrofa) [12]): indicates that the binding is not slow
